Data reported in patent US8426424B2, “Certain substituted amides, method of making, and method of use thereof” (CGI Pharmaceuticals, Inc., priority 2008, dated 2013).

melting point: 178 to 179 °C
Structure (SMILES): Cc1c(NC(=O)c2cc3c(s2)C2CCC3C2)cccc1-c1cn(C)c(=O)c(Nc2ccc(C3C(=O)N(C)CCN3C)cc2)n1 (stereo not shown) [1q, N-(3-(6-(4-(1,4-Dimethyl-3-oxopiperazin-2-yl)phenylamino)-4-methyl-5-oxo-4,5-dihydropyrazin-2-yl)-2-methylphenyl)-4,5,6,7-tetrahydro-4,7-methanobenzo[b]thiophene-2-carboxamide]
